{"source": "patent US8067231B2", "about": "(priority 2005, dated 2011)", "test_system": "Neuro-2A", "type": "cell-based, mouse"}
{"smiles": "CC1=C(/C=C/C(C)=C/C=C/C(C)=C/C(=O)O)C(C)(C)CCC1", "note": "[all trans retinoic acid, All Trans-Retinoic acid]", "values": [{"measurement": "BoNT/A SNAP25197-cleavage product (uptake of BoNT/A) after differentiation reagent treatment", "result": "increase"}]}
